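Following 48 hours of exposure in 96-well plates, responses at five concentrations were used to interpolate endpoints linearly. GI50 is the concentration that inhibits growth by half.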 Active and inactive are the calls of the source. Cut-off read from the data, not from the text of the source: active = GI50 up to about 1.1 µM and inactive = higher.
What was measured:
Test in all cases: NCI tumour cell line growth inhibition, 48 h
[1] = test system: SNB-19
[2] = test system: SNB-75
[3] = test system: HT-29
[4] = test system: IGROV-1
[5] = test system: BT-549
[6] = test system: MCF7
[7] = test system: OVCAR-4
[8] = test system: MDA-MB-435
[9] = test system: SK-MEL-2
[10] = test system: HCC 2998
[11] = test system: OVCAR-5
[12] = test system: ACHN
[13] = test system: T47D
[14] = test system: TK-10
[15] = test system: OVCAR-3
[16] = test system: SN12C
[17] = test system: SK-MEL-28
[18] = test system: SR
[19] = test system: MDA-N
[20] = test system: HCT-15

Row | SMILES | GI50 [1] | GI50 [2] | GI50 [3] | GI50 [4] | GI50 [5] | GI50 [6] | GI50 [7] | GI50 [8] | GI50 [9] | GI50 [10] | GI50 [11] | GI50 [12] | GI50 [13] | GI50 [14] | GI50 [15] | GI50 [16] | GI50 [17] | GI50 [18] | GI50 [19] | GI50 [20]
1 | CC[S+]([O-])c1c2cc(OC)ccc2nc2ccc(OC)cc12 (stereo not given) | 20 µM (inactive) | 21 µM (inactive) | 4.09 µM (inactive) | 4.94 µM (inactive) | 17.5 µM (inactive) | 2.84 µM (inactive) | 17 µM (inactive) | 8.85 µM (inactive) | 17.5 µM (inactive) | 16.6 µM (inactive) | 17.8 µM (inactive) | 4.79 µM (inactive) | 2.62 µM (inactive) | 5.38 µM (inactive) | 6 µM (inactive) | 4.58 µM (inactive) | 7.91 µM (inactive) | 3.51 µM (inactive) | 4.71 µM (inactive) | 6.75 µM
2 | Cc1c(/N=C\c2ccc(N(CCC#N)CCC#N)cc2)c(=O)n(-c2ccccc2)n1C | 41.8 µM (inactive) | 20.7 µM (inactive) | > 100 µM (inactive) | > 93.5 µM (inactive) | > 100 µM (inactive) | > 63.7 µM (inactive) | > 100 µM (inactive) | > 100 µM (inactive) | > 96.6 µM (inactive) | > 100 µM (inactive) | > 100 µM (inactive) | 22.5 µM (inactive) | > 100 µM (inactive) | 24.1 µM (inactive) | > 90.6 µM (inactive) | > 93.5 µM (inactive) | > 100 µM (inactive) | > 100 µM (inactive) | > 100 µM (inactive) | > 100 µM
3 | CO/C=C/C=C(\C#N)C(=O)OC | > 100 µM (inactive) | 60.3 µM (inactive) | > 100 µM (inactive) | > 100 µM (inactive) | > 100 µM (inactive) | > 100 µM (inactive) | > 100 µM (inactive) | > 100 µM (inactive) | > 100 µM (inactive) | > 100 µM (inactive) | > 100 µM (inactive) | > 100 µM (inactive) | > 100 µM (inactive) | > 100 µM (inactive) | > 100 µM (inactive) | > 100 µM (inactive) | > 100 µM (inactive) | > 100 µM (inactive) | > 100 µM (inactive) | > 100 µM
4 | COc1ccc(-n2c(C)nc3ccc(NC4OC(CO)C(O)C(O)C4O)cc3c2=O)cc1 (stereo not given) | > 100 µM (inactive) | > 100 µM (inactive) | > 100 µM (inactive) | > 100 µM (inactive) | > 100 µM (inactive) | > 100 µM (inactive) | > 100 µM (inactive) | > 100 µM (inactive) | 97.5 µM (inactive) | > 100 µM (inactive) | > 100 µM (inactive) | > 100 µM (inactive) | > 100 µM (inactive) | > 100 µM (inactive) | > 100 µM (inactive) | > 100 µM (inactive) | > 100 µM (inactive) | > 100 µM (inactive) | > 100 µM (inactive) | > 100 µM
